Measured values from patent US9447028B2, “Therapeutic aryl-amido-aryl compounds and their use” (King's College London, priority 2009, dated 2016).

Experiments:
Type in all cases: cell-based
RARα = target: T1, RARα (Homo sapiens, UniProt P10276); experiment: Transactivation assay for RAR alpha (gal4-RAR fusion, luciferase reporter, COS-7 cells); conditions: for RARα/RARβ ratio (*): fold-selectivity for RARα over RARβ; for RARα activity ratio: ratio of test compound EC50 to that of atRA on the same plate
T1 construct: gal4 (fusion partner); expressed in transfected cells; host or cells: COS-7
T1 sequence (P10276 183-417 limits assumed): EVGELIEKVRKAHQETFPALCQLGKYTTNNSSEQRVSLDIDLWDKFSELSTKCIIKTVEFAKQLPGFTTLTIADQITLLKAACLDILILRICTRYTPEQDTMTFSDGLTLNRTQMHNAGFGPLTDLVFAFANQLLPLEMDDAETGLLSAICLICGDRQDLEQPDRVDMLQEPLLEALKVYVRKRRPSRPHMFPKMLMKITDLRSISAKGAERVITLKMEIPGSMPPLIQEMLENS
In short: (§1)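 COS-7 cells co-transfected with gal4–RAR ligand-binding-domain fusion and pFR-luc reporter, then treated with compound in phenol-red-free DMEM (1% DMSO) for about one day. Luciferase read after lysis with BrightGlo; EC50 values from replicate experiments given as a ratio of means.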

RARβ = target: T2, RARβ (Homo sapiens, UniProt P10826); experiment: Transactivation assay for RAR beta (gal4-RAR fusion, luciferase reporter, COS-7 cells); conditions: ratio of test compound EC50 to that of atRA; inactive = no agonist action at the highest concentration tested
T2 construct: gal4 (fusion partner); expressed in transfected cells; host or cells: COS-7
T2 sequence (P10826 183-417 limits assumed): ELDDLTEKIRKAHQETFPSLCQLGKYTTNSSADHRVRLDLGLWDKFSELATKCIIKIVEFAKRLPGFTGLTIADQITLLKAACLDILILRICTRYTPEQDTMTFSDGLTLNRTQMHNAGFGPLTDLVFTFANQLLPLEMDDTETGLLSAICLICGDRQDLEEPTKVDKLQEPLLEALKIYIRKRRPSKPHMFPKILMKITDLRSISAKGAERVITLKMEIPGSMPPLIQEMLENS
In short: as §1

RARγ = target: T3, RARγ (Homo sapiens, UniProt P13631); experiment: Transactivation assay for RAR gamma (gal4-RAR fusion, luciferase reporter, COS-7 cells); conditions: ratio of test compound EC50 to that of atRA; inactive = no agonist action at the highest concentration tested
T3 construct: gal4 (fusion partner); expressed in transfected cells; host or cells: COS-7
T3 sequence (P13631 185-419 limits assumed): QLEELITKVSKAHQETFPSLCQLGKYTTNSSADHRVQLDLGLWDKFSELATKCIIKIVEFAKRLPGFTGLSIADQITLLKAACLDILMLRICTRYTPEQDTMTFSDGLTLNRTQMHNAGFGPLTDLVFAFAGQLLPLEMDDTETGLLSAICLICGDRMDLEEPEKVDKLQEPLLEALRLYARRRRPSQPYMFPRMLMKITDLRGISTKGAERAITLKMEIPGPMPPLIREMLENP
In short: as §1

SMILES | RARα/RARβ ratio (*) (RARα) | RARα activity ratio (RARα) | RARβ activity ratio (RARβ) | RARγ activity ratio (RARγ)
CCOc1c(Cl)cc(C(=O)Nc2ccc(C(=O)O)nn2)cc1OC(C)C [AAA-082, 6-(3-Chloro-4-ethoxy-5-isopropoxybenzamido)pyridazine-3-carboxylic acid] | 275 | 25 | 6885 | >56000
COc1cc(C(=O)Nc2ccc(C(=O)O)cc2)cc(Cl)c1OC(C)C [AAA-083, 4-(3-Chloro-4-isopropoxy-5-methoxybenzamido)benzoic acid] | 10 | 9 | 90 | 4390
CCOc1cc(C(=O)Nc2ccc(C(=O)O)cc2)cc(Cl)c1OC(C)C [AAA-086, 4-(3-Chloro-5-ethoxy-4-isopropoxybenzamido)benzoic acid] | 3.1 | 2.1 | 7 | 1203
CCOc1c(Cl)cc(C(=O)Nc2ccc(C(=O)O)cc2)cc1OCC1CC1 [AAA-089, 4-(3-Chloro-5-(cyclopropylmethoxy)-4-ethoxybenzamido)benzoic acid] | 392 | 1.3 | 510 | 2647
CC(C)Oc1cc(C(=O)Nc2ccc(C(=O)O)c(O)c2)cc(Cl)c1OC(C)C [AAA-091, 4-(3-Chloro-4,5-diisopropoxybenzamido)-2-hydroxybenzoic acid] | 135 | 1.6 | 216 | 75000
O=C(O)c1ccc(NC(=O)c2cc(Cl)c(OC3CCC3)c(OC3CCC3)c2)cc1 [AAA-092, 4-(3-Chloro-4,5-di(cyclobutyloxy)benzamido)benzoic acid] | 27 | 2 | 53 | 1059
Cc1cc(NC(=O)c2cc(Cl)c(OC3CCC3)c(OC3CCC3)c2)ccc1C(=O)O [AAA-093, 4-(3-Chloro-4,5-di(cyclobutyloxy)benzamido)-2-methylbenzoic acid] | 46 | 2.0 | 92 | 10833
O=C(Nc1ccc(C(=O)O)c(O)c1)c1cc(Cl)c(OC2CCC2)c(OC2CCC2)c1 [AAA-094, 4-(3-Chloro-4,5-di(cyclobutyloxy)benzamido)-2-hydroxybenzoic acid] | 2852 | 0.23 | 656 | 20000
CC(C)Oc1cc(C(=O)Nc2ccc(C(=O)O)c(F)c2)cc(Cl)c1OC(C)C [AAA-095, 4-(3-Chloro-4,5-diisopropoxybenzamido)-2-fluorobenzoic acid] | 34 | 2.7 | 92 | 812
CCOc1c(Cl)cc(C(=O)Nc2ccc(C(=O)O)c(C)c2)cc1OC1CCC1 [AAA-096, 4-(3-Chloro-5-(cyclobutoxy)-4-ethoxybenzamido)-2-methylbenzoic acid] | 67 | 3.2 | 215 | 7895

More lines, now with the values ahead:

RARα/RARβ ratio (*) (RARα) | RARα activity ratio (RARα) | RARβ activity ratio (RARβ) | RARγ activity ratio (RARγ) | SMILES
31 | 5.2 | 160 | 13333 | CCOc1c(Br)cc(C(=O)Nc2ccc(C(=O)O)c(C)c2)cc1C(F)(F)F [AAA-071, 4-(3-Bromo-4-ethoxy-5-(trifluoromethyl)benzamido)-2-methylbenzoic acid]
6 | 19 | 117 | 220 | CCOc1c(F)cc(C(=O)Nc2ccc(C(=O)O)cc2)cc1F [AAA-073, 4-(4-Ethoxy-3,5-difluorobenzamido)benzoic acid]
210 | 154 | 32400 | 14500 | Cc1cc(NC(=O)c2cc(F)c(OC(C)C)c(Cl)c2)ccc1C(=O)O [AAA-074, 4-(3-Chloro-5-fluoro-4-isopropoxybenzamido)-2-methylbenzoic acid]
241 | 4.7 | 1134 | 2394 | COc1c(Cl)cc(C(=O)Nc2ccc(C(=O)O)c(C)c2)cc1OC(C)C [AAA-075, 4-(3-Chloro-5-isopropoxy-4-methoxybenzamido)-2-methylbenzoic acid]
609 | 6.7 | 4082 | 117857 | COc1c(Cl)cc(C(=O)Nc2ccc(C(=O)O)c(F)c2)cc1OC(C)C [AAA-077, 4-(3-Chloro-5-isopropoxy-4-methoxybenzamido)-2-fluorobenzoic acid]
487 | 1.1 | 536 | 6786 | CCOc1c(Cl)cc(C(=O)Nc2ccc(C(=O)O)c(F)c2)cc1OC(C)C [AAA-079, 4-(3-Chloro-4-ethoxy-5-isopropoxybenzamido)-2-fluorobenzoic acid]
 | 1.6 | 318 | 17460 | CCOc1c(Cl)cc(C(=O)Nc2ccc(C(=O)O)c(C)c2)cc1OC(C)C [AAA-080, 4-(3-Chloro-4-ethoxy-5-isopropoxybenzamido)-2-methylbenzoic acid]
161 | 9.0 | 1453 | >27000 | CCOc1c(Cl)cc(C(=O)Nc2ccc(C(=O)O)c(O)c2)cc1OC(C)C [AAA-081, 4-(3-Chloro-4-ethoxy-5-isopropoxybenzamido)-2-hydroxybenzoic acid]
234 | 26 | 6087 | >1400 | CCOc1c(Cl)cc(C(=O)Nc2ccc(C(=O)O)cc2)cc1OC [AAA-084, 4-(3-Chloro-4-ethoxy-5-methoxybenzamido)benzoic acid]
210 | 33 | 6923 | >8300 | CCOc1c(Cl)cc(C(=O)Nc2ccc(C(=O)O)c(C)c2)cc1OC [AAA-085, 4-(3-Chloro-4-ethoxy-5-methoxybenzamido)-2-methylbenzoic acid]
286 | 7 | 2000 | 11725 | CCOc1cc(C(=O)Nc2ccc(C(=O)O)c(C)c2)cc(Cl)c1OC(C)C [AAA-087, 4-(3-Chloro-5-ethoxy-4-isopropoxybenzamido)-2-methylbenzoic acid]
250 | 5.0 | 1250 | 367000 | CCOc1c(Cl)cc(C(=O)Nc2ccc(C(=O)O)c(O)c2)cc1OCC1CC1 [AAA-090, 4-(3-Chloro-5-(cyclopropylmethoxy)-4-ethoxybenzamido)-2-hydroxybenzoic acid]
58 | 2.6 | 151 | 100000 | CCOc1c(Cl)cc(C(=O)Nc2ccc(C(=O)O)c(C)c2)cc1OCC1CC1 [AAA-097, 4-(3-Chloro-5-(cyclopropylmethoxy)-4-ethoxybenzamido)-2-methylbenzoic acid]
